Measured values published in the supplement of paper PMC10307832.

Legend:
Experiment in all cases: relative viability (nuclei count vs DMSO), 5 days (fraction); higher = more cells survive
ALW-II-49-7 + Decitabine = compound: Cc1ccc(C(=O)Nc2cccc(C(F)(F)F)c2)cc1Nc1cncc(C(N)=O)c1 [ALW-II-49-7] + Nc1ncn([C@H]2C[C@H](O)[C@@H](CO)O2)c(=O)n1 [Decitabine] (partner 2 µM)
Outline: (§1)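 Five library-drug doses in √10 steps were combined with a fixed anchor-drug dose, or a single drug was given alone, by pin tool to lung cancer cell lines in 1536-well plates the day after seeding. Nuclei were stained and counted after 5 days. Relative viability is the nuclei count in treated wells over that in vehicle wells, taken as the median of duplicate plates.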

XMD13-2 + OSI-027 = compound: C1CC1C(=O)NC2=NNC3=C2C=CC(=C3)C4=CC(=CC=C4)C(=O)NC5CC5 [XMD13-2] + COc1cccc2cc(-c3nc([C@H]4CC[C@H](C(=O)O)CC4)n4ncnc(N)c34)[nH]c12 [OSI-027] (partner 0.5 µM)
Outline: as §1

Dasatinib + OSI-027 = compound: Cc1nc(Nc2ncc(C(=O)Nc3c(C)cccc3Cl)s2)cc(N2CCN(CCO)CC2)n1 [Dasatinib] + COc1cccc2cc(-c3nc([C@H]4CC[C@H](C(=O)O)CC4)n4ncnc(N)c34)[nH]c12 [OSI-027] (partner 0.5 µM)
Outline: as §1

XMD13-2 + Alpelisib = compound: C1CC1C(=O)NC2=NNC3=C2C=CC(=C3)C4=CC(=CC=C4)C(=O)NC5CC5 [XMD13-2] + Cc1nc(NC(=O)N2CCC[C@H]2C(N)=O)sc1-c1ccnc(C(C)(C)C(F)(F)F)c1 [Alpelisib] (partner 2 µM)
Outline: as §1

| Cell Line | relative viability (ALW-II-49-7 + Decitabine; first compound 0.08 µM) | relative viability (ALW-II-49-7 + Decitabine; first compound 0.253 µM) | relative viability (ALW-II-49-7 + Decitabine; first compound 0.8 µM) | relative viability (ALW-II-49-7 + Decitabine; first compound 2.53 µM) | relative viability (ALW-II-49-7 + Decitabine; first compound 8 µM) | relative viability (XMD13-2 + OSI-027; first compound 0.05 µM) | relative viability (XMD13-2 + OSI-027; first compound 0.1581 µM) | relative viability (XMD13-2 + OSI-027; first compound 0.5 µM) | relative viability (XMD13-2 + OSI-027; first compound 1.581 µM) | relative viability (XMD13-2 + OSI-027; first compound 5 µM) | relative viability (Dasatinib + OSI-027; first compound 0.005 µM) | relative viability (Dasatinib + OSI-027; first compound 0.01581 µM) | relative viability (Dasatinib + OSI-027; first compound 0.05 µM) | relative viability (Dasatinib + OSI-027; first compound 0.1581 µM) | relative viability (Dasatinib + OSI-027; first compound 0.5 µM) | relative viability (XMD13-2 + Alpelisib; first compound 0.05 µM) | relative viability (XMD13-2 + Alpelisib; first compound 0.1581 µM) | relative viability (XMD13-2 + Alpelisib; first compound 0.5 µM) | relative viability (XMD13-2 + Alpelisib; first compound 1.581 µM) | relative viability (XMD13-2 + Alpelisib; first compound 5 µM) |
| --- | --- | --- | --- | --- | --- | --- | --- | --- | --- | --- | --- | --- | --- | --- | --- | --- | --- | --- | --- | --- |
| SK-LU-1 | 0.658 | 0.61 | 0.489 | 0.639 | 0.5 | 0.382 | 0.375 | 0.426 | 0.311 | 0.389 | 0.271 | 0.167 | 0.167 | 0.14 | 0.152 | 1.3 | 1.09 | 1.27 | 0.945 | 0.6 |
| NCI-H23 | 0.311 | 0.286 | 0.303 | 0.328 | 0.333 | 0.761 | 0.544 | 0.593 | 0.411 | 0.783 | 0.497 | 0.502 | 0.615 | 0.492 | 0.325 | 0.731 | 0.676 | 0.752 | 0.669 | 0.806 |
| NCI-H1355 | 0.329 | 0.366 | 0.391 | 0.436 | 0.376 | 0.48 | 0.413 | 0.394 | 0.382 | 0.387 | 0.434 | 0.291 | 0.287 | 0.272 | 0.271 | 0.924 | 0.888 | 0.843 | 0.777 | 0.776 |
| COR-L23 | 0.426 | 0.521 | 0.408 | 0.501 | 0.439 | 0.915 | 0.78 | 0.838 | 0.711 | 0.864 | 0.628 | 0.612 | 0.61 | 0.46 | 0.375 | 0.931 | 0.77 | 0.951 | 0.741 | 0.805 |
| NCI-H2023 | 0.226 | 0.214 | 0.255 | 0.249 | 0.347 | 0.58 | 0.36 | 0.4 | 0.357 | 0.341 | 0.418 | 0.326 | 0.248 | 0.26 | 0.211 | 0.661 | 0.618 | 0.52 | 0.53 | 0.617 |
| A-427 | 0.531 | 0.585 | 0.616 | 0.612 | 0.655 | 0.462 | 0.354 | 0.489 | 0.444 | 0.355 | 0.464 | 0.338 | 0.411 | 0.342 | 0.37 | 1.19 | 1.05 | 1.02 | 0.949 | 0.965 |
| NCI-H1793 | 0.518 | 0.527 | 0.516 | 0.471 | 0.53 | 0.404 | – | 0.255 | 0.277 | 0.271 | 0.2 | 0.238 | 0.234 | 0.218 | 0.147 | 0.797 | 0.835 | 0.686 | 0.732 | 0.897 |
| NCI-H596 | 0.884 | 1.23 | 1.1 | 1.12 | 1.05 | 0.776 | 0.673 | 0.715 | 0.79 | 0.985 | 0.656 | 0.632 | 0.547 | 0.479 | 0.306 | 0.624 | 0.543 | 0.407 | 0.587 | 0.0287 |
| LU99A | – | 1.03 | 1 | 0.839 | 1.09 | 0.312 | 0.273 | 0.264 | 0.302 | 0.29 | 0.296 | – | 0.264 | 0.232 | 0.216 | 0.553 | 0.491 | 0.561 | 0.446 | 0.335 |
| NCI-H2009 | 0.326 | 0.446 | 0.368 | 0.438 | 0.467 | 0.69 | 0.563 | 0.815 | 0.634 | 0.66 | 0.698 | 0.501 | 0.407 | 0.189 | 0.158 | 1.23 | 1.14 | 1.22 | 1.15 | 1.23 |
